Data: patent US8877889B2, “Tumor cell-killing peptides” (Industry-Academic Cooperation Foundation, Chosun University, priority 2009, dated 2014)
“Also recorded” adds a separate entry of the source.

Assays:
Type in all cases: cell-based
HeLa cells [1] = test: Cell death after transfection of Noxa constructs, counting EGFP-positive dead cells; settings: for cell death-inducing activity of Noxa point mutants: 20 hours after transfection (FIG. 3B); for cell death after over-expression: within 11 hrs after transfection (FIG. 1D); for cell death-inducing activity of leucine substitution mutants 4Lmt, 5Lmt: HeLa cells transfected (FIG. 8A)
Procedure: (D) HeLa cells were transfected with deletion mutants of Noxa. At 11 hrs, 24 hrs, and 36 hrs after transfection, cell death was determined by counting EGFP-positive dead cells with morphological changes using the fluorescent microscope.
(B) HeLa cells were transfected with WT or with the indicated Noxa mutants. 20 hours after transfection cell death was determined by counting the EGFP-positive dead and survived cells under the fluorescent microscope.
(A) HeLa cells were transfected with either WT Noxa, 4Lmt (L42A, L43A, L45A, L49A), or 5Lmt (L29A, L42A, L43A, L45A, L49A) constructs. At the indicated times after transfection, cell death was determined by counting the EGFP-positive dead cells with morphological changes under the fluorescent microscope.
HeLa cells were transfected with EGFP-Noxa WT and 41-54 in combination with Bcl-2 expression plasmid or in the presence of zVAD-fmk (25 μM). 18 hours after transfection, cell death was determined by counting EGFP-positive dead cells with morphological changes using the fluorescent microscope. Data represent an average±SD of three experiments each with 200 total cells counted.
The percentage of cell death was determined by counting EGFP-positive dead cells with morphology using the fluorescent microscope. Minimally, 300 cells in three separate fields were counted for each measurement.

HeLa cells [2] = test: Mitochondrial localization of Noxa mutants, confocal microscopy; settings: confocal microscopic image analysis
Text: (B) HeLa cells were co-transfected with the pDsRed2-Mito and either Noxa 4Lmt or Noxa 5Lmt. 18 hrs after transfection the mitochondrial morphology was observed under the laser confocal microscope.

[3] = system: CT26 mouse colon carcinoma cells; test: Tumor cell killing activity, bright field images; settings: 10 μM peptide (FIG. 9A)
Procedure: (A) CT26 cells were treated with 10 μM MTD, TU1:MTD, TU2:MTD, or TU3:MTD peptides, and bright field images for indicated peptides were obtained at indicated time points. Representative images of at least 3 individual experiments were presented.

HeLa cells [4] = test: Peptide-induced cell death, counting dead and survived cells under the light microscope; settings: peptides 10 μM, 20 μM, 30 μM, 10 minutes after treatment (FIG. 1B, 3A)
Procedure: (B) HeLa cells were treated with DMSO or the indicated peptides in increasing doses (10 μM, 20 μM, and 30 μM). % of cell death was determined at 10 minutes after treatment by counting the dead cells and survived cells under the light microscope.
(E) HeLa cells were transfected with substitution mutants of MTD peptide.
HeLa cells were treated with DMSO or with the indicated peptides at increasing doses (10 μM, 20 μM, or 30 μM). % cell death was determined 10 minutes after treatment by counting the dead cells and survived cells (300 cells per sample) under the light microscope.
(D) HeLa cells were treated with indicated amounts of MTD peptide for 1 hour, 2 hours, or 5 hours. % cell death was calculated by counting the dead cells and survived cells (200 to 500 cells per sample) under the light microscope. Data represent the means±SD of three independent experiments.

NCI-H460 cells = test: Peptide-induced cell death in NCI-H460 cells; settings: 5 μM, 2 or 5 hours (FIG. 3C)
Procedure: (C) NCI-H460 cells were treated with indicated peptides for 2 hours or 5 hours. % cell death was determined as described above.

HeLa cells [5] = test: Measurement of intracellular calcium with Fluo-4-AM; settings: 3 μM peptide
Procedure: (A-C) HeLa cells were loaded with 3 μM Fluo-4-AM for 30 minutes and then treated with 3 μM of indicated peptides (A: MTD, B: MTDmt3, C: MTDmt5). Fluorescence images and bright-field images were obtained with the laser scanning confocal microscope at 5-second intervals for 5 minutes. Relative fluorescence intensities (F/F0) at two region-of-interests (ROI 1 and 2) were measured at 5-second intervals for 5 minutes.
(E-G) HeLa cells were pretreated in calcium free KRB media alone (E), in KRB media with 10 μM 2-APB and 20 μM Ryanodine (F), or in KRB media with freshly made 30 μM CsA (G) for 2 hours. HeLa cells were then loaded with 3 μM Fluo-4-AM for 30 minutes and treated with 3 μM of MTD peptide. Images were obtained with the laser scanning confocal microscope at 5-second intervals for 5 minutes. Relative fluorescence intensities (F/F0) at two region-of-interests (ROI 1 and 2) were measured at 5-second intervals for 5 minutes.
For Ca^2+ measurements in the cytosol, HeLa cells were cultured in an Lab-Tek™ Chamber glass slide and loaded with Fluo-4-AM (Fluo-4-acetoxymethyl ester) at a final concentration of 3 μM for 30 minutes, followed by washing with PBS (Phosphate buffered saline) at pH 7.4 and the addition of fresh Ca^2+-free Krebs-ringer modified buffer (KRB: 125 mM NaCl, 5 mM KCl, 1 mM Na3PO4, 1 mM MgSO4, 5.5 mM glucose, and 20 mM HEPES, pH 7.4, at 37° C.) containing the indicated peptides. Time-lapse images were obtained at 488 nm excitation with the Argon laser scanning confocal microscope (Leica TCS SP5 Microsystems, Mannheim, Germany) at 10-second intervals for 5 minutes to visualize Fluo-4-AM.

HeLa cells [6] = test: Caspase activation, western blot of cell lysates; settings: 5 μM peptide
Procedure: (E) After treatment with the MTD peptide, MTDmt4, or MTDmt5 (5 μM) in HeLa cells, cell lysates were prepared at indicated times. Equal amounts of proteins were subjected to the SDS-PAGE and blotted onto PVDF membrane. After blocked with 5% nonfat milk in TBST (10 mM Tris-HCl, pH 7.5, 100 mM NaCl and 0.1% Tween-20), the membrane was probed with anti-caspase-3 (SantaCruz Biotechnology, Inc., Santa Cruz, Calif., USA), anti-caspase-8 (Cell signaling technology, Beverly, Mass., USA), anti-caspase-9 (SantaCruz Biotechnology, Inc., Santa Cruz, Calif.), anti-XIAP (Upstate Biotechnology, Dundee, United Kingdom), or anti-Bid (home-made) antibodies. Anti-actin antibody (Chemicon International, Inc., Temecula, Calif., USA) was used as equal loading control.

HeLa cells [7] = test: Live cell images and annexin V / SYTOX Green staining of dying cells; settings: MTD peptide 10 μM or TRAIL 100 ng/ml (FIG. 2A, 7A, 7B)
Procedure: (A) HeLa cells were treated with MTD peptides (10 μM), or TRAIL (100 ng/ml). Images were taken at the indicated times (upper panel). Jurkat cells were treated with MTD peptide (10 μM) for 10 minutes, cells were processed for TEM. Images were obtained with 4,000× magnification (lower panel). N: nucleus, M: mitochondrion.
(D) HeLa cells were treated with the MTD (5 μM) peptide with or without the pretreatment of 10 μM BAPTA-AM for 2 hours. Live cell images were serially acquired at 10-second intervals for 10 minutes and shown at the indicated times.
(A) HeLa cells were stained with FITC-conjugated Annexin V antibody at 10 minutes after DMSO or MTD treatment. Images were obtained under the confocal microscope.
(B) HeLa cells were stained with SYTOX Green 10 minutes after DMSO or MTD treatment. Images were obtained using confocal microscope.

L45A (MPGKKARKNAQPSPARAPAELEVECATQLRRFGDKLNFRQKLLNAISKLFCSGT; UniProt Q13794 1-54, looked up, variant L45A)
cell death-inducing activity of Noxa point mutants (HeLa cells [1]; HeLa cells): remarkably reduced the cell death-inducing activities | mitochondrial localization (HeLa cells [2]): maintained the typical mitochondrial localization of Noxa

21-40: Noxa deletion mutant containing only the BH3 domain (LEVECATQLRRFGDKLNFRQ; UniProt Q13794 21-40, looked up, fragment)
cell death-inducing activity after over-expression, with increasing time (HeLa cells [1]; HeLa cells, 24 hrs and 36 hrs after transfection (FIG. 1D)): strong cell death-inducing activity | membrane morphology of transfected cells (HeLa cells [1]; HeLa cells, data not shown): membrane blebbings | cell death after over-expression (HeLa cells [1]; HeLa cells): induced little cell death within 11 hrs

1-30: Noxa deletion mutant which did not contain any domains (MPGKKARKNAQPSPARAPAELEVECATQLR; UniProt Q13794 1-30, looked up, fragment)
cell death after over-expression (HeLa cells [1]; HeLa cells): no effect on cell death

CNGRCGGKLLNLISKLF [TU1:MTD]
tumor cell killing activity [3]: no or little killing activity

3Lmt: Noxa triple substitution L45A, L49A and L29A (MPGKKARKNAQPSPARAPAELEVECATQARRFGDKLNFRQKLLNAISKAFCSGT; UniProt Q13794 1-54, looked up, variant L29A L45A L49A)
cell death-inducing activity of Noxa point mutants (HeLa cells [1]; HeLa cells): remarkably reduced the cell death-inducing activities

RRRRRRRRGRQKLLNAASKLF (PTD-MTDmt3 fusion peptide derived from Homo sapiens)
cell death-inducing activity (% of cell death) (HeLa cells [4]): completely lost their cell death-inducing activities; also recorded: no cell death | susceptibility of cells to peptide (NCI-H460 cells): not | cytosolic calcium level change (HeLa cells [5]): did not induce changes in the cytosolic calcium level

L43A (MPGKKARKNAQPSPARAPAELEVECATQLRRFGDKLNFRQKLANLISKLFCSGT; UniProt Q13794 1-54, looked up, variant L43A)
mitochondrial localization (HeLa cells [2]): maintained the typical mitochondrial localization of Noxa

RRRRRRRRGRQKLLNLIAALF (PTD-MTDmt4 fusion peptide derived from Homo sapiens)
cell death-inducing activity (% of cell death) (HeLa cells [4]): maintaining the killing activity | caspase activation (HeLa cells [6]): not activated

L29A: Noxa single substitution in the BH3 domain (MPGKKARKNAQPSPARAPAELEVECATQARRFGDKLNFRQKLLNLISKLFCSGT; UniProt Q13794 1-54, looked up, variant L29A)
cell death-inducing activity of Noxa point mutants (HeLa cells [1]; HeLa cells): remarkably reduced the cell death-inducing activities

4Lmt: Noxa mutant with L42A, L43A, L45A and L49A (MPGKKARKNAQPSPARAPAELEVECATQLRRFGDKLNFRQKAANAISKAFCSGT; UniProt Q13794 1-54, looked up, variant L42A L43A L45A L49A)
cell death-inducing activity of leucine substitution mutants 4Lmt, 5Lmt (HeLa cells [1]): almost completely lost all of the cell death-inducing activity | mitochondrial localization (HeLa cells [2]): loss of Noxa mitochondrial localization

5Lmt: Noxa mutant with L29A, L42A, L43A, L45A and L49A (MPGKKARKNAQPSPARAPAELEVECATQARRFGDKLNFRQKAANAISKAFCSGT; UniProt Q13794 1-54, looked up, variant L29A L42A L43A L45A L49A)
cell death-inducing activity of leucine substitution mutants 4Lmt, 5Lmt (HeLa cells [1]): almost completely lost all of the cell death-inducing activity | mitochondrial localization (HeLa cells [2]): loss of Noxa mitochondrial localization

L49A (MPGKKARKNAQPSPARAPAELEVECATQLRRFGDKLNFRQKLLNLISKAFCSGT; UniProt Q13794 1-54, looked up, variant L49A)
cell death-inducing activity of Noxa point mutants (HeLa cells [1]; HeLa cells): remarkably reduced the cell death-inducing activities | mitochondrial localization (HeLa cells [2]): maintained the typical mitochondrial localization of Noxa

L42A (MPGKKARKNAQPSPARAPAELEVECATQLRRFGDKLNFRQKALNLISKLFCSGT; UniProt Q13794 1-54, looked up, variant L42A)
mitochondrial localization (HeLa cells [2]): maintained the typical mitochondrial localization of Noxa

B1: TRAIL (protein, UniProt P50591 1-281, looked up)
Tumor necrosis factor ligand …: MAMMEVQGGPSLGQTCVLIVIFTVLLQSLCVAVTYVYFTNELKQMQDKYSKSGIACFLKEDDSYWDPNDEESMNSPCWQVKWQLRQLVRKMILRTSEETISTVQEKQQNISPLVRERGPQRVAAHITGTRGRSNTLSSPNSKNEKALGRKINSWESSRSGHSFLSNLHLRNGELVIHEKGFYYIYSQTYFRFQEEIKENTKNDKQMVQYIYKYTSYPDPILLMKSARNSCWSKDAEYGLYSIYQGGIFELKENDRIFVSVTNEHLIDMDHEASFFGAFLVG
notes: apoptosis inducer used at 100 ng/ml for comparison
morphology of dying cells (HeLa cells [7]): membrane shrinkage of apoptotic cells
